The record followed here is patent publication US9751874B2, “Hydroxy containing FXR (NR1H4) modulating compounds” (Gilead Sciences, Inc., priority 2014, dated 2017).

Assay [1] has as its target T1, human FXR alpha ligand binding domain (Homo sapiens, UniProt Q96RI1).
T1 construct: made in house; host or cells: E. coli BL21(DE3), vector pDEST15
T1 sequence (Q96RI1 187-472 isoform Q96RI1-2): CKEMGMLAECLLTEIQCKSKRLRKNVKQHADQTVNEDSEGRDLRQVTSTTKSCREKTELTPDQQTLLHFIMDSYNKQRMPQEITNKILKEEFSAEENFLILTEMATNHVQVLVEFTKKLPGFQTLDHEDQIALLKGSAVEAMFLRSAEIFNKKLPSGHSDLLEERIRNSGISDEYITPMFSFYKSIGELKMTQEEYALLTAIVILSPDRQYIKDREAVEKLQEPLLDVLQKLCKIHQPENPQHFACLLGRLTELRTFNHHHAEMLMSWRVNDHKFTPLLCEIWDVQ
The assay is described as follows: FRET activity assay (ligand mediated cofactor peptide interaction, LANCE). The format is biochemical. As to conditions: GST-FXR-LBD / biotinylated SRC-1 peptide (676-700), read-out: F EC50. Here is the method:
Determination of a ligand mediated cofactor peptide interaction to quantify ligand binding to the nuclear receptor FXR was performed as follows: Preparation of human FXR alpha ligand binding domain: The human FXRalpha LBD was expressed in E. coli strain BL21(DE3) as an N-terminally GST tagged fusion protein. The DNA encoding the FXR ligand binding domain was cloned into vector pDEST15 (Invitrogen). Expression was under control of an IPTG inducible T7 promoter. The amino acid boundaries of the ligand binding domain were amino acids 187-472 of Database entry NM_005123 (RefSeq). Expression and purification of the FXR-LBD: An overnight preculture of a transformed E. coli strain was diluted 1:20 in LB-Ampicillin medium and grown at 30° C. to an optical density of OD600=0.4-0.6. Gene expression was then induced by addition of 0.5 mM IPTG. Cells were incubated an additional 6 h at 30° C., 180 rpm. Cells were collected by centrifugation (7000×g, 7 min, rt). Per liter of original cell culture, cells were resuspended in 10 mL lysis buffer (50 mM Glucose, 50 mM Tris pH 7.9, 1 mM EDTA and 4 mg/mL lysozyme) and left on ice for 30 min. Cells were then subjected to sonication and cell debris removed via centrifugation (22000×g, 30 min, 4° C.). Per 10 mL of supernatant 0.5 mL prewashed Glutathione 4B sepharose slurry (Qiagen) was added and the suspension kept slowly rotating for 1 h at 4° C. Glutathione 4B sepharose beads were pelleted by centrifugation (2000×g, 15 sec, 4° C.) and washed twice in wash buffer (25 mM Tris, 50 mM KCl, 4 mM MgCl2 and 1M NaCl). The pellet was resuspended in 3 mL elution buffer per liter of original culture (elution buffer: 20 mM Tris, 60 mM KCl, 5 mM MgCl2 and 80 mM glutathione added immediately prior to use as powder). The suspension was left rotating for 15 min at 4° C., the beads pelleted and eluted again with half the volume of elution buffer than the first time. The eluates were pooled and dialysed overnight in 20 mM Hepes buffer (pH 7.5) containing 60 mM KCl, 5 mM MgCl2 as well as 1 mM dithiothreitol and 10% (v/v) glycerol. The protein was analysed by SDS-Page.
The method measures the ability of putative ligands to modulate the interaction between the purified bacterial expressed FXR ligand binding domain (LBD) and a synthetic biotinylated peptide based on residues 676-700 of SRC-1 (LCD2, 676-700). The sequence of the peptide used was B—[…]—COOH where the N-terminus was biotinylated (B). The ligand binding domain (LBD) of FXR was expressed as fusion protein with GST in BL-21 cells using the vector pDEST15. Cells were lysed by sonication, and the fusion proteins purified over glutathione sepharose (Pharmacia) according to the manufacturers instructions. For screening of compounds for their influence on the FXR-peptide interaction, the Perkin Elmer LANCE technology was applied. This method relies on the binding dependent energy transfer from a donor to an acceptor fluorophor attached to the binding partner of interest. For ease of handling and reduction of background from compound fluorescence LANCE technology makes use of generic fluorophore labels and time resolved detection Assays were done in a final volume of 25 μL in a 384 well plate, in a Tris-based buffer (20 mM Tris-HCl pH 7.5; 60 mM KCl, 5 mM MgCl2; 35 ng/μL BSA), containing 20-60 ng/well recombinantly expressed FXR-LBD fused to GST, 200-600 nM N-terminally biotinylated peptide, representing SRC1 aminoacids 676-700, 200 ng/well Streptavidin-xIAPC conjugate (Prozyme) and 6-10 ng/well Eu W1024-antiGST (Perkin Elmer). DMSO content of the samples was kept at 1%. After generation of the assay mix and diluting the potentially FXR modulating ligands, the assay was equilibrated for 1 h in the dark at rt in FIA-plates black 384 well (Greiner). The LANCE signal was detected by a Perkin Elmer VICTOR2VTM Multilabel Counter. The results were visualized by plotting the ratio between the emitted light at 665 and 615 nm. […]

Assay [2] has as its target T2, FXR ligand binding domain (Homo sapiens, UniProt Q96RI1).
T2 construct: expressed in transfected cells; host or cells: HEK293 cells, transiently transfected with pCMV-BD-FXR-LBD, pFR-Luc and pRL-CMV
T2 sequence (Q96RI1 187-472 isoform Q96RI1-2): T1 sequence (Q96RI1 187-472 isoform Q96RI1-2)
The assay is described as follows: Mammalian One Hybrid (M1H) assay, Gal4 promoter driven transactivation in HEK293 cells. The format is cell-based. As to conditions: Gal4-FXR-LBD luciferase reporter, 16 h. Here is the method:
Mammalian One Hybrid (M1H) Assay
Determination of a ligand mediated Gal4 promoter driven transactivation to quantify ligand binding mediated activation of FXR was performed as follows: The cDNA part encoding the FXR ligand binding domain was cloned into vector pCMV-BD (Stratagene) as a fusion to the yeast GAL4 DNA binding domain under the control of the CMV promoter. The amino acid boundaries of the ligand binding domain were amino acids 187-472 of Database entry NM_005123 (RefSeq). The plasmid pFR-Luc (Stratagene) was used as the reporter plasmid, containing a synthetic promoter with five tandem repeats of the yeast GAL4 binding sites, driving the expression of the Photinus pyralis (American firefly) luciferase gene as the reporter gene. In order to improve experimental accuracy the plasmid pRL-CMV (Promega) was cotransfected. pRL-CMV contains the constitutive CMV promoter, controlling the expression of the Renilla reniformis luciferase. All Gal4 reporter gene assays were done in HEK293 cells (obtained from DSMZ, Braunschweig, Germany) grown in MEM with L-Glutamine and Earle's BSS supplemented with 10% fetal bovine serum, 0.1 mM nonessential amino acids, 1 mM sodium pyruvate, and 100 units Penicilin/[…] per mL at 37° C. in 5% CO2. Medium and supplements were obtained from Invitrogen. For the assay, […] cells were plated per well in 96 well plates in 100 μL per well MEM without Phenol Red and L-Glutamine and with Earle's BSS supplemented with 10% charcoal/dextran treated FBS (HyClone, South Logan, Utah), 0.1 mM nonessential amino acids, 2 mM glutamine, 1 mM sodium pyruvate, and 100 units Penicilin/[…] per mL, incubated at 37° C. in 5% CO2. The following day the cells were >90% confluence. Medium was removed and cells were transiently transfected using 20 μL per well of a OptiMEM—polyethylene-imine-based transfection-reagent (OptiMEM, Invitrogen; Polyethyleneimine, Aldrich Cat No. 40,827-7) including the three plasmids described above. MEM with the same composition as used for plating cells was added 2-4 h after addition of transfection mixture. Then compound stocks, prediluted in MEM were added (final vehicle concentration not exceeding 0.1%). Cells were incubated for additional 16 h before firefly and renilla luciferase activities were measured sequentially in the same cell extract using a Dual-Light-Luciferase-Assay system (Dyer et al., Anal. Biochem. 2000, 282, 158-161). All experiments were done in triplicates.
In general terms: In a reporter assay the amount or activity of a reporter protein is the signal.

The EC50 is the concentration giving half of the maximal effect. Take `O=C(O)c1ccc2nc([C@]3(O)CC[C@@H](OCc4c(-c5c(Cl)cccc5Cl)noc4C4CC4)CC3)sc2c1F` [Example 14-1, 2-((1s,4s)-4-((5-Cyclopropyl-3-(2,6-dichlorophenyl)isoxazol-4-yl)methoxy)-1-hydroxycyclohexyl)-7-fluorobenzo[d]thiazole-6-carboxylic acid]: the concentration giving a half-maximal response (EC50) in assay [1] was determined as 25 nM; in assay [2], 550 nM.
Taken in the same sequence, the figures for `O=C(O)c1cc(F)c2nc([C@]3(O)[C@@H]4CC[C@H]3C[C@H](OCc3c(-c5c(Cl)cncc5Cl)noc3C3CC3)C4)sc2c1` [Example 11-29, 2-((1R,3s,5S,8r)-3-((5-cyclopropyl-3-(3,5-dichloropyridin-4-yl)isoxazol-4-yl)methoxy)-8-hydroxybicyclo[3.2.1]octan-8-yl)-4-fluorobenzo[d]thiazole-6-carboxylic acid] were 4.3 nM and 5.8 nM.
Take `O=C(O)c1cc(F)c2nc([C@]3(O)[C@@H]4CC[C@H]3C[C@H](OCc3c(-c5c(Cl)cccc5Cl)noc3C3CC3)C4)sc2c1` [Example 11-27, 2-((1R,3s,5S,8r)-3-((5-cyclopropyl-3-(2,6-dichlorophenyl)isoxazol-4-yl)methoxy)-8-hydroxybicyclo[3.2.1]octan-8-yl)-4-fluorobenzo[d]thiazole-6-carboxylic acid]: the 50% effective concentration (EC50) in assay [1] came to 3.8 nM; in assay [2], 1 nM.
Taken in the same sequence, the figures for `O=C(O)c1cc(F)c2nc([C@]3(O)[C@@H]4CC[C@H]3C[C@H](OCc3c(C5CC5)cnn3-c3c(Cl)cccc3Cl)C4)sc2c1` [Example 47, 2-((1R,3s,5S,8r)-3-((4-Cyclopropyl-1-(2,6-dichlorophenyl)-1H-pyrazol-5-yl)methoxy)-8-hydroxybicyclo[3.2.1]octan-8-yl)-4-fluorobenzo[d]thiazole-6-carboxylic acid] were 1.1 nM and 7.9 nM.
Taken in the same sequence, the figures for `O=C(O)c1ccc2nc([C@]3(O)CC[C@@H](OCc4c(-c5c(Cl)cccc5Cl)noc4C4CC4)CC3)sc2c1` [Example 11-30, 2-((1s,4s)-4-((5-Cyclopropyl-3-(2,6-dichlorophenyl)isoxazol-4-yl)methoxy)-1-hydroxycyclohexyl)benzo[d]thiazole-6-carboxylic acid] were 64 nM and 67 nM.
Taken in the same sequence, the figures for `CC1(OCc2c(-c3c(Cl)cccc3Cl)noc2C2CC2)C[C@H]2CC[C@@H](C1)[C@]2(O)c1nc2c(F)cc(C(=O)O)cc2s1` (single isomer, unassigned) [Example 11-39] were 390 nM and 250 nM.
In the case of `O=C(O)c1ccc2nc([C@]3(O)[C@@H]4CC[C@H]3C[C@H](OCc3c(-c5c(Cl)cccc5Cl)noc3C3CC3)C4)sc2c1` [Example 11-22, 2-((1R,3s,5S,8r)-3-((5-cyclopropyl-3-(2,6-dichlorophenyl)isoxazol-4-yl)methoxy)-8-hydroxybicyclo[3.2.1]octan-8-yl)benzo[d]thiazole-6-carboxylic acid], the values for the 50% effective concentration (EC50) in assay [1] and in assay [2] were 3.7 nM and 1.6 nM, respectively.
Taken in the same sequence, the figures for `O=C(O)c1ccc2nc([C@]3(O)[C@@H]4CC[C@H]3C[C@@H](OCc3c(-c5c(Cl)cccc5Cl)noc3C3CC3)C4)sc2c1` [Example 11-23, 2-((1R,3r,5S,8r)-3-((5-Cyclopropyl-3-(2,6-dichlorophenyl)isoxazol-4-yl)methoxy)-8-hydroxybicyclo[3.2.1]octan-8-yl)benzo[d]thiazole-6-carboxylic acid] were 41 nM and 18 nM.
Taken in the same sequence, the figures for `O=C(O)c1ccc2nc(C3(O)CCC(OCc4c(-c5c(Cl)cccc5Cl)noc4C4CC4)C3)sc2c1` (stereo not drawn) [Example 11-57, 2-(3-((5-Cyclopropyl-3-(2,6-dichlorophenyl)isoxazol-4-yl)methoxy)-1-hydroxy-cyclopentyl)benzo[d]thiazole-6-carboxylic acid] were 31 nM and 29 nM.
Regarding `O=C(O)c1cc2sc([C@]3(O)CC[C@@H](OCc4c(-c5c(Cl)cccc5Cl)noc4C4CC4)CC3)nc2cc1F` [Example 11-20, 2-((1s,4s)-4-((5-Cyclopropyl-3-(2,6-dichlorophenyl)isoxazol-4-yl)methoxy)-1-hydroxycyclohexyl)-5-fluorobenzo[d]thiazole-6-carboxylic acid], the EC50 amounted to 180 nM in assay [1] and 1500 nM in assay [2].
Taken in the same sequence, the figures for `O=C(O)c1ccnc2cc([C@]3(O)CC[C@@H](OCc4c(-c5c(Cl)cccc5Cl)noc4C4CC4)CC3)ccc12` [Example 29, 7-((1s,4s)-4-((5-cyclopropyl-3-(2,6-dichlorophenyl)isoxazol-4-yl)methoxy)-1-hydroxycyclohexyl)quinoline-4-carboxylic acid] were 51 nM and 2600 nM.
`O=C(O)C1(Oc2cc(F)cc([C@]3(O)[C@@H]4CC[C@H]3C[C@H](OCc3c(-c5c(Cl)cccc5Cl)noc3C3CC3)C4)c2)CC1` [Example 14-3, 1-(3-((1R,3s,5S,8r)-3-((5-Cyclopropyl-3-(2,6-dichlorophenyl)isoxazol-4-yl)methoxy)-8-hydroxybicyclo[3.2.1]octan-8-yl)-5-fluorophenoxy)cyclopropanecarboxylic acid]: the EC50 was 41 nM in assay [1] and 520 nM in assay [2].
